# Measurements as given in publication PMC12480552 (Scientific Reports, 2025).
# Read-outs that look alike come from different tables or passages of the source. Marks after values point to notes of the source that are not given here.
# Legend:
# [1] = MALDI MSI of brain sections, mouse model of brain metastasis (MDA231-BrM2-831); assay type: in vivo, NCr nude mice
# Source text: A luciferase-transfected human breast adenocarcinoma cell line (MDA 231-BRM2-831) was used to generate a metastatic brain tumor model in female athymic nude mice. […] NCr nude mice (strain: CrTac: NCr-Foxn1^nu; female; 5-7 weeks old; Taconic Biosciences (Germantown, NY)) were used for these studies. A power analysis was completed by a statistician to determine the appropriate sample sizes for each group to measure a statistically significant. […] Control mice (n = 10) underwent a sham IC procedure (needle insertion into the ventricle without cell injection. All mice were monitored for tumor development by bioluminescence imaging (BLI) approximately once weekly for ~ 45 days, beginning 1 h after cell injection. In vivo BLI was performed at ~ 10 min post-luciferin injection (corresponding to the peak bioluminescent signal) using an IVIS Spectrum-CT system (PerkinElmer, Waltham, MA). Imaging parameters were set to automatic exposure in the Living Image software, while the binning (8) and aperture (open f-stop) remained at the default settings for all BLI acquisitions. The imaging frequency was increased to twice weekly for mice that developed brain metastases (BMs) as indicated by increased bioluminescence in the cranial region. […] The exact tumor size was not measured as an endpoint of this study. […] Two hours after the final dose, mice were euthanized by CO2 asphyxiation. At necropsy, a terminal blood sample was collected via cardia puncture, and the brains were harvested and snap-frozen by floating on liquid nitrogen. […] From each plane, serial tissue sections were collected for MALDI MSI and for H&E staining, and immunohistochemistry (IHC) staining. Tissue trimmings from between each plane were collected, homogenized, and submitted for bioanalysis in addition to the terminal plasma samples. For the mouse metastases study, tissue sections were collected from five horizontal tissue planes starting from roughly 1 mm from the top of the tissue, and each subsequent tissue plane was separated by roughly 1 mm. […] For MALDI MSI analysis, sections were thaw-mounted onto indium tin oxide-coated slides (Delta Technologies, Ltd, Loveland, CO). For H&E and IHC analyses, tissue sections were collected onto superfrost glass slides (Fisher Scientific, Waltham, MA). Brain tissue trimmings from between each of the horizontal planes were pooled and collected into a pre-weighed vial for homogenization and LC-MS/MS bioanalysis (described in detail later). […] Arraymold, Ogden, UT). […] DMSO: […] […] Ion images were loaded into […] […] Statistical significance was set at p < 0.05.
# in vivo = experiment: in vivo
# Procedure: Female C57BL/6 mice were inoculated intracranially on the right side of the brain in the right frontal lobe with mouse glioblastoma (GL261) tumor cells (≈ 2 × 10^5) in 3 µL of phosphate-buffered saline for the tumor development. Mice were observed daily for clinical signs, and any mouse meeting predefined criteria for moribund status was euthanized. Criteria for moribund sacrifice included: ≥ 20% body weight loss or severe neurological symptoms (e.g., prostration, paralysis, seizures, hemorrhage).
# Mice were euthanized by CO2 asphyxiation.
# Brain tissue was weighed in polypropylene tubes, then PBS was added to the tissue sample before homogenization (1:4 wt: vol).
# The LC-MS/MS system included an API-6500 triple quadrupole mass spectrometer (Sciex). Data were acquired and processed using Analyst® 1.7.2 software (Sciex). An Acquity UHPLC BEH C18 analytical column (1.7-µm, 2.1 × 50 mm; Waters) was applied in sample analysis.
# For olaparib, the LLQ was 5.00 ng/mL, and the HLQ was 1000 ng/mL.
# First, the brain tissue partition coefficient Kp, brain was calculated using Eq. (1).
# Where Css, brain is the mean steady-state total drug concentration in brain tissue, and Css, plasma is the mean steady-state total drug concentration in plasma (both measured by LC-MS/MS). […] Finally, Kp, uu, brain was calculated using Eq. (2).2 [drawing 2]
# [2] = Protein binding by rapid equilibrium dialysis, CD1 mouse brain and plasma; conditions: pH 7.4
# Source text: The luciferase-transfected human breast cancer cell line (MDA231-BrM2-831) was purchased from Memorial Sloan Kettering Cancer Center (New York, NY). […] Deuterated olaparib (olaparib-d8) was purchased from Alsachim (Illkirch Graffenstaden, France). Cynomolgus macaque brain tissue (lot #CYN252598), rhesus macaque brain tissue (lot #RHS24901), rhesus macaque plasma (lot #RHS24900), CD1 mouse brain tissue (lot #MSE343926), and CD1 mouse plasma (lot #MSE343926) used in the protein-binding assays were obtained from BioIVT (Westbury, NY).
# Brain (diluted 1:4 [5×] in PBS) or plasma (undiluted) were spiked with each test compound and applied to each matrix. Aliquots of each mixture were added to the donor wells of a rapid equilibrium dialysis plate in triplicate, and blank PBS was added to each receiver well, at volumes recommended by the manufacturer. Plates were incubated with shaking at 200 rpm for 4 h at 37 °C. At the end of incubation, samples were collected from each donor and receiver well. Samples were matrix-matched with the addition of an equivalent volume of blank matrix to each receiver sample and blank PBS to each donor sample. Additional samples were collected from each incubation mixture at the beginning (T = 0 min) and end (T = 240 min) of incubation for determination of stability, and matrix-matched with PBS as described above. The resultant samples were extracted by protein precipitation with acetonitrile containing an analytical internal standard, centrifuged, and analyzed by LC-MS/MS.
# [3] = female, C57BL/6, mouse, brain tumor, oral
# [4] = female, C57BL/6, mouse, contralateral normal brain, oral
# [5] = female, C57BL/6, mouse, contralateral normal brain/plasma, oral
# [6] = female, C57BL/6, mouse, normal brain, oral, 35 mg/kg
# [7] = BM mice (niraparib n = 4, olaparib n = 3), oral once daily 5 days, niraparib 35 mg/kg or olaparib 50 mg/kg, 2 h after final dose, LOD 70 ng/g niraparib, 170 ng/g olaparib
compound,measurement,setting,value
NC(=O)c1cccc2cn(-c3ccc([C@@H]4CCCNC4)cc3)nc12 [Niraparib],concentration at 2 h,"[1]; female, NCr nude (CrTac:NCr-Foxn1nu), mouse, brain (sections), oral, 35 mg/kg, read-out: MALDI MSI Brain sections, mean (SD)",519 ng/g
same,concentration at 2 h,"[1]; female, NCr nude (CrTac:NCr-Foxn1nu), mouse, brain metastasis tumor tissue, oral, 35 mg/kg, all tumor-containing sections (n = 42) in all BM animals (n = 4), niraparib 35 mg/kg, read-out: MALDI MSI mean localized tumor concentration",~1700 ng/g
same,concentration at 2 h,"[1]; female, NCr nude (CrTac:NCr-Foxn1nu), mouse, brain tumor, oral, 35 mg/kg, read-out: MALDI MSI Brain tumors, mean (SD)",2400 ng/g
same,concentration at 2 h,"[1]; female, NCr nude (CrTac:NCr-Foxn1nu), mouse, brain ventricles, oral, 35 mg/kg, all ventricle-containing sections (n = 48) in all BM animals, niraparib 35 mg/kg, read-out: MALDI MSI mean concentration in the ventricles",~1860 ng/g
same,concentration at 2 h,"[1]; female, NCr nude (CrTac:NCr-Foxn1nu), mouse, brain, oral, 35 mg/kg, read-out: MALDI MSI Brain sections, mean (SD)",487 ng/g
same,Kp at 2 h,"[1]; female, NCr nude (CrTac:NCr-Foxn1nu), mouse, oral, 35 mg/kg, BM mice, mean brain tumor ROI total concentration by MALDI MSI versus terminal plasma total concentration",0.945
same,concentration at 2 h,"[1]; female, NCr nude (CrTac:NCr-Foxn1nu), mouse, whole brain (sections), oral, 35 mg/kg, Brain Metastases, Mouse 1, Fig. 2B, read-out: MALDI MSI Mean Conc., whole brain, individual mouse",430 ng/g
same,concentration at 2 h,"[1]; female, NCr nude (CrTac:NCr-Foxn1nu), mouse, whole brain (sections), oral, 35 mg/kg, Brain Metastases, Mouse 2, Fig. 2B, read-out: MALDI MSI Mean Conc., whole brain, individual mouse",640 ng/g
same,concentration at 2 h,"[1]; female, NCr nude (CrTac:NCr-Foxn1nu), mouse, whole brain (sections), oral, 35 mg/kg, Brain Metastases, Mouse 3, Fig. 2B, read-out: MALDI MSI Mean Conc., whole brain, individual mouse",540 ng/g
same,concentration at 2 h,"[1]; female, NCr nude (CrTac:NCr-Foxn1nu), mouse, whole brain (sections), oral, 35 mg/kg, Brain Metastases, Mouse 4, Fig. 2B, read-out: MALDI MSI Mean Conc., whole brain, individual mouse",340 ng/g
same,concentration at 2 h,"[1]; female, NCr nude (CrTac:NCr-Foxn1nu), mouse, whole brain (sections), oral, 35 mg/kg, No Brain Metastases, Mouse 8, Fig. 2B, read-out: MALDI MSI Mean Conc., whole brain, individual mouse",400 ng/g
same,concentration at 2 h,"[1]; female, NCr nude (CrTac:NCr-Foxn1nu), mouse, whole brain (sections), oral, 35 mg/kg, No Brain Metastases, Mouse 9, Fig. 2B, read-out: MALDI MSI Mean Conc., whole brain, individual mouse",560 ng/g
same,concentration at 2 h,"[1]; female, NCr nude (CrTac:NCr-Foxn1nu), mouse, whole brain (sections), oral, 35 mg/kg, No Brain Metastases, Mouse 10, Fig. 2B, read-out: MALDI MSI Mean Conc., whole brain, individual mouse",600 ng/g
same,Kp at 2 h,in vivo; [3],0.893
same,concentration at 24 h,in vivo; [3],436 ng/g
same,Kp at 24 h,"in vivo; female, C57BL/6, mouse, brain tumor, oral, 35 mg/kg",0.465
same,concentration at 24 h,in vivo; [4],171 ng/g
same,Kp uu at 2 h,in vivo; [5],0.011
same,Kp at 2 h,"in vivo; female, C57BL/6, mouse, normal brain, oral",0.08
same,Kp at 24 h,in vivo; [6],0.182
same,Kp uu at 24 h,in vivo; [6],0.025
same,"fraction unbound at 4 h, 1 µM",[2]; brain homogenate (diluted 1:4 [5×] in PBS),0.0295
same,"fraction unbound at 4 h, 1 µM","[2]; cynomolgus monkey, brain homogenate (diluted 1:4 [5×] in PBS)",0.0361
same,"fraction unbound at 4 h, 1 µM",[2]; plasma (undiluted),0.22
O=C(c1cc(Cc2n[nH]c(=O)c3ccccc23)ccc1F)N1CCN(C(=O)C2CC2)CC1 [Olaparib],"MALDI MSI Brain sections, mean (SD)",[1]; [7],< LOD
same,"MALDI MSI Brain tumors, mean (SD)",[1]; [7],< LOD
same,"MALDI MSI Brain sections, mean (SD)","[1]; No BM mice (n = 3), oral once daily 5 days, niraparib 35 mg/kg or olaparib 50 mg/kg, 2 h after final dose, LOD 70 ng/g niraparib, 170 ng/g olaparib",< LOD
same,"Kp, brain","in vivo; 2 h since dose, normal brain",0.031
same,"Brain tumor, mean (SD)","in vivo; 24 h since dose, n = 9, olaparib: only three of nine animals had detectable drug levels",78 (92)^d ng/g
same,Kp at 2 h,in vivo; [3],0.126
same,concentration at 24 h,in vivo; [4],8 ng/g
same,Kp at 2 h,in vivo; [5],0.031
same,Kp uu at 2 h,"in vivo; female, C57BL/6, mouse, in vivo",0.02
same,"fraction unbound at 4 h, 1 µM","[2]; CD1, mouse, brain homogenate",0.23
same,Fu,"[2]; CD1, mouse, plasma, 4 h, 1 µM",35.2%
